{
  "source": "patent US11505583B2",
  "about": "“Proteins for the treatment of epithelial barrier function disorders” (Second Genome, Inc., priority 2018, dated 2022)",
  "key": {"[1]": {"system": "HCT8 enterocyte and HT29-MTX goblet cell lines", "experiment": "Oris Cell Migration assay (epithelial cell wound healing)", "format": "cell-based, human", "conditions": "48 hours; SG-11 (SEQ ID NO:5 or SEQ ID NO:9) 1 μg/ml, EGF 30 ng/ml, staurosporine 100 nM; FIG. 2", "description": "The 96 well Oris Cell Migration assay containing plugs preventing cell attachment in the center of each well was used according to the manufacturer's instructions (Platypus Technologies, Madison, Wis.). The migration assay plates were warmed to room temperature prior to use and plugs were removed from 100% confluence wells prior to cell addition. The HCT8 enterocyte and HT29-MTX goblet cell lines were used at a 9:1 ratio with a total of 5×10^4 total cells added per well (4.5×10^4 HCT8 cells and 0.5×10^4 HT29-MTX cells). Cells were incubated at 37° C.+5% CO2 for 24 hours. Plugs were then removed from all control and sample wells. Control wells included cells treated with the diluent vehicle as the blank, 30 ng/ml epidermal growth factor (EGF) as the positive control, and 100 nM staurosporine as the negative control, all diluted in cRPMI. Sample wells contained SG-11 protein (SEQ ID NO:9) at a concentration of 1 μg/ml diluted in cRPMI. 100% and 0% wells were cultured in cRPMI. […] The green fluorescent viability dye […] was added to all wells at a concentration of 0.5 μg/ml in PBS containing 0.9 mM CaCl2 and 0.5 mM MgCl2, incubated for 30 min at 37° C.+5% CO2, the dye was removed and cells were washed in PBS containing 0.9 mM CaCl2 and 0.5 mM MgCl2 and fluorescence was measured. […] Samples were normalized between 100% and 0% samples and values expressed as a percent growth."}, "[2]": {"system": "C57BL/6 mice given 2.5% DSS in drinking water", "experiment": "Therapeutic DSS model of inflammatory bowel disease, treatment after 7 days DSS (Example 5, Example 13B)", "format": "in vivo, mouse", "experimental": "In this example, experiments were performed to study the effects of SG-11 in the DSS mouse model when the SG-11 protein is administered to the mice after DSS treatment for 7 days. This differs from the treatment regimen of Example 4 above in which mice were administered SG-11 protein shortly before treatment with DSS.\nEight-week-old male C57BL/6 mice were housed 5 animals per cage and given food and water ad libitum for seven days. Following a 7-day acclimation period, the mice were provided with drinking water containing 2.5% DSS for 7 days. Fresh 2.5% DSS water was prepared every 2 days during the 7 day DSS administration. For this therapeutic DSS study, SG-11 used to treat the animals was fused at its N-terminus to a FLAG Tag (DYKDDDDK; SEQ ID NO:32).\nOn day 7 normal drinking water was restored and i.p. treatments of 50 nmole/kg of SG-11 (1.3 mg/kg) or Gly2-GLP2 (0.2 mg/kg) were initiated. Treatments were administered twice a day (b.i.d.), with a morning and evening dose (every 8 and 16 hours) for six days.\nBody weight was measured daily during the morning treatment. The colon tissue was then harvested and length was measured in centimeters and the tissue was weighed. Fecal material was flushed from the colon and residual PBS removed by gently running the colon tissue through a pair of forceps. The colon tissue was then weighed and colon weight to length ratio in mg/mm was determined. Following weight measurements proximal and distal colon tissue was banked for RNA and protein analysis and the remaining tissues was fixed in 10% neutral buffered formalin for histopathology. Statistical analysis was performed by a one-way ANOVA compared to DSS+vehicle for serum 4KDa-FITC translocation, serum LBP concentrations, colon length, and colon weight to length ratio, while a two-way ANOVA was performed for analysis of body weight. In all analysis, a Fisher's LSD test for multiple comparisons was used. Graphs represent data pooled from two experiments, and are plotted as mean±SEM.\nHistopathology analysis was performed on proximal and distal colon tissues from the therapeutic DSS model described above. Proximal (FIG. 13A) and distal (FIG. 13B) colon scores (range 0-4) are presented and as well as the total score for the colon which represents the sum of proximal and distal colon scores (Range 0-8) (FIG. 13C). LMA=Loss of mucosal architecture, Edema=Edema, INF=Inflammation, TMI=Transmural inflammation, MH=Mucosal hyperplasia, DYS=Dysplasia. Graphs represent data pooled from two independent experiments, and are plotted as mean±SEM. Statistical analysis was performed by a one-way ANOVA compared to DSS+vehicle followed by a Fisher's LSD test for multiple comparisons.\nIn the second experiment (Example 13B), mice were provided with drinking water containing 2.5% DSS for 7 days. On day 7 normal drinking water was restored and i.p. treatments of 50 nmole/kg of SG-11 (SEQ ID NO:7) (1.3 mg/kg), SG-11V5 (SEQ ID NO:19) (1.3 mg/kg), or Gly2-GLP2 (0.2 mg/kg) were initiated. […]\nAt the end of each DSS model study, mice were fasted for 4 hours and then orally gavaged with 600 mg/kg 4KDa dextran labeled with fluorescein isothiocyanate (FITC) [4KDa-FITC]. One hour after the 4KDa-FITC gavage mice were euthanized, blood was collected and FITC signal was measured in serum. […]\nUpon completion of the DSS models above, LBP levels were measured as an inflammation centric readout of barrier function following the protocol detailed in Example 5. […]"}, "[3]": {"system": "C57BL/6 mice given 2.5% DSS in drinking water", "experiment": "Concurrent (prophylactic) DSS model of inflammatory bowel disease (Example 4, Example 13A)", "format": "in vivo, mouse", "conditions": "50 nmoles/kg i.p. b.i.d."}, "[4]": {"conditions": "mouse, in vivo, ip"}, "[5]": {"conditions": "Example 5, colon tissue, vs DSS+vehicle, FIG. 13"}},
  "data": [
    {"molecule": "CN[C@@H]1C[C@H]2O[C@@](C)([C@@H]1OC)n1c3ccccc3c3c4c(c5c6ccccc6n2c5c31)C(=O)NC4", "note": "[staurosporine]", "values": [
      {"measurement": "Percent growth (epithelial cell wound healing, proliferation)", "setting": "[1]", "value": "suppressing cell proliferation"}
    ]},
    {"molecule": "Gly2-GLP2: stable analog of glucagon-like peptide 2 (GLP2), positive control (HGDGSFSDEMNTILDNLAARDFINWLIQTKITD; Glucagon-like peptide 2; UniProt P01275 146-178, looked up, variant A2G) [reference compound]", "values": [
      {"measurement": "LBP in serum", "setting": "[2]; Example 5, 50 nmole/kg i.p. b.i.d. for six days after 7 days DSS, FIG. 10", "value": "no reduction in LBP"},
      {"measurement": "Histopathology: inflammation and transmural inflammation scores", "setting": "[2]; [5]", "value": "no change"},
      {"measurement": "Histopathology: loss of mucosal architecture score", "setting": "[2]; [5]", "value": "modest, but significant, reduction"},
      {"measurement": "Colon weight to length ratio", "setting": "[2]; Example 13B, 50 nmole/kg, vs DSS+vehicle, p<0.01, FIG. 23B", "value": "did not"},
      {"measurement": "4KDa-FITC intestinal permeability readout and serum LBP", "setting": "[2]; treatment after 7 days DSS, 50 nmole/kg i.p. b.i.d. for six days, FLAG-tagged SG-11", "value": "no significant effects"},
      {"measurement": "Colon length", "setting": "[3]; FIG. 8A", "value": "significant improvement in colon length"},
      {"measurement": "Colon weight to length ratio", "setting": "[3]; FIG. 8B", "value": "significant improvement in colon weight to length ratios"}
    ]},
    {"molecule": "epidermal growth factor [EGF, positive control in the wound healing assay]", "values": [
      {"measurement": "Percent growth (epithelial cell wound healing, proliferation)", "setting": "[1]", "value": "increasing proliferation"}
    ]},
    {"molecule": "fluorescently labeled bovine serum albumin: tracer protein used in preliminary tracking studies after i.p. injection", "values": [
      {"measurement": "Time at which protein reached the colon after i.p. delivery", "setting": "[4]", "value": 6, "unit": "h"}
    ]}
  ]
}
